Legend:
NCI/ADR-RES = assay: Antiproliferative activity against human NCI-ADR-RES cells measured after 48 hrs by SRB assay; format: functional, cell-based; settings: for IC50: 48 h; for TGI: time 48 hrs
ACHN = assay: Antiproliferative activity against human ACHN cells measured after 48 hrs by SRB assay; format: functional, cell-based; settings: for IC50: 48 h; for TGI: time 48 hrs
NCI-H322M = assay: Antiproliferative activity against human NCI-H322M cells measured after 48 hrs by SRB assay; format: functional, cell-based; settings: for IC50: 48 h; for TGI: time 48 hrs
KM12 = assay: Antiproliferative activity against human KM12 cells measured after 48 hrs by SRB assay; format: functional, cell-based; settings: for IC50: KM12, 48 h; for TGI: KM12, time 48 hrs
NCI-H522 = assay: Antiproliferative activity against human NCI-H522 cells measured after 48 hrs by SRB assay; format: functional, cell-based; settings: for IC50: NCI-H522, 48 h; for TGI: NCI-H522, time 48 hrs
MDA-MB-435 = assay: Antiproliferative activity against human MDA-MB-435 cells measured after 48 hrs by SRB assay; format: functional, cell-based; settings: for IC50: MDA-MB-435, 48 h; for TGI: MDA-MB-435, time 48 hrs
SK-MEL-28 = assay: Antiproliferative activity against human SK-MEL-28 cells measured after 48 hrs by SRB assay; format: functional, cell-based; settings: for IC50: SK-MEL-28, 48 h; for TGI: SK-MEL-28, time 48 hrs
DU-145 = assay: Antiproliferative activity against human DU-145 cells measured after 48 hrs by SRB assay; format: functional, cell-based; settings: for IC50: DU-145, 48 h; for TGI: DU-145, time 48 hrs
TK-10 = assay: Antiproliferative activity against human TK-10 cells measured after 48 hrs by SRB assay; format: functional, cell-based; settings: for IC50: TK-10, 48 h; for TGI: TK-10, time 48 hrs
NCI-H226 = assay: Antiproliferative activity against human NCI-H226 cells measured after 48 hrs by SRB assay; format: functional, cell-based; settings: for IC50: NCI-H226, 48 h; for TGI: NCI-H226, time 48 hrs
RPMI-8226 [1] = assay: Antiproliferative activity against human RPMI-8226 cells measured after 48 hrs by SRB assay; format: functional, cell-based; settings: for IC50: RPMI-8226, 48 h; for TGI: RPMI-8226, time 48 hrs
HCC 2998 = assay: Antiproliferative activity against human HCC 2998 cells measured after 48 hrs by SRB assay; format: functional, cell-based; settings: for IC50: HCC 2998, 48 h; for TGI: HCC 2998, time 48 hrs
HCT-15 = assay: Antiproliferative activity against human HCT-15 cells measured after 48 hrs by SRB assay; format: functional, cell-based; settings: for IC50: HCT-15, 48 h; for TGI: HCT-15, time 48 hrs
[2] = target: T1, Mitogen-activated protein kinase 10 (Homo sapiens, UniProt P53779); assay: Inhibition of JNK3 (unknown origin)
T1 sequence (P53779 whole entry): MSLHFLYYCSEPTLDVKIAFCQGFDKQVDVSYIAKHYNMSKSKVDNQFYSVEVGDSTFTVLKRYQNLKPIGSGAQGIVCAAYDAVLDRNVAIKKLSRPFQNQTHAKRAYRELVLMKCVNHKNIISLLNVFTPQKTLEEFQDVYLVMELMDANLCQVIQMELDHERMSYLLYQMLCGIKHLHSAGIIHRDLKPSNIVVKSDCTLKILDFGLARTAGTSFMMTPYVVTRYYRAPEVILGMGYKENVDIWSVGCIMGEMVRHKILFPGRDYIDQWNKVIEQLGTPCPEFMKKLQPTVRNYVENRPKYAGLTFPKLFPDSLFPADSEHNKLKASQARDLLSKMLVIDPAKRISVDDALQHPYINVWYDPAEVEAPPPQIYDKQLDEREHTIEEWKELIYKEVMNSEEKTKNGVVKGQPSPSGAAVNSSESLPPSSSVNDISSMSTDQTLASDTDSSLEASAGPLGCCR

[3] = target: T1, Mitogen-activated protein kinase 10; assay: Inhibition of JNK3 (unknown origin) at 1 uM relative to control
OVCAR-5 = assay: Antiproliferative activity against human OVCAR-5 cells measured after 48 hrs by SRB assay; format: functional, cell-based; settings: for IC50: OVCAR-5, 48 h; for TGI: OVCAR-5, time 48 hrs
CCRF-CEM = assay: Antiproliferative activity against human CCRF-CEM cells measured after 48 hrs by SRB assay; format: functional, cell-based; settings: for IC50: 48 h; for TGI: time 48 hrs
SNB-75 = assay: Antiproliferative activity against human SNB-75 cells measured after 48 hrs by SRB assay; format: functional, cell-based; settings: for IC50: SNB-75, 48 h; for TGI: SNB-75, time 48 hrs
T47D = assay: Antiproliferative activity against human T47D cells measured after 48 hrs by SRB assay; format: functional, cell-based; settings: for IC50: 48 h; for TGI: time 48 hrs
HCT-116 = assay: Antiproliferative activity against human HCT-116 cells measured after 48 hrs by SRB assay; format: functional, cell-based; settings: for IC50: HCT-116, 48 h; for TGI: HCT-116, time 48 hrs
UO-31 = assay: Antiproliferative activity against human UO-31 cells measured after 48 hrs by SRB assay; format: functional, cell-based; settings: for IC50: UO-31, 48 h; for TGI: UO-31, time 48 hrs
MDA-MB-231 = assay: Antiproliferative activity against human MDA-MB-231 cells measured after 48 hrs by SRB assay; format: functional, cell-based; settings: for IC50: MDA-MB-231, 48 h; for TGI: MDA-MB-231, time 48 hrs
BT-549 = assay: Antiproliferative activity against human BT-549 cells measured after 48 hrs by SRB assay; format: functional, cell-based; settings: for IC50: BT-549, 48 h; for TGI: BT-549, time 48 hrs
Cytochrome P450 3A4 = Cytochrome P450 3A4 (Homo sapiens, UniProt P08684); assay: Inhibition of CYP3A4 (unknown origin) using BOMCC as a substrate; format: ADME
RPMI-8226 [4] = assay: Induction of necrosis in human RPMI-8226 cells assessed as LDH release at 0.87 uM; format: functional
RPMI-8226 [5] = assay: Induction of necrosis in human RPMI-8226 cells assessed as LDH release at 5.47 uM; format: functional
[6] = target: T2, Vascular endothelial growth factor receptor 3 (Homo sapiens, UniProt P35916); assay: Inhibition of FLT4 (unknown origin) at 1 uM relative to control
T2 sequence (P35916 whole entry): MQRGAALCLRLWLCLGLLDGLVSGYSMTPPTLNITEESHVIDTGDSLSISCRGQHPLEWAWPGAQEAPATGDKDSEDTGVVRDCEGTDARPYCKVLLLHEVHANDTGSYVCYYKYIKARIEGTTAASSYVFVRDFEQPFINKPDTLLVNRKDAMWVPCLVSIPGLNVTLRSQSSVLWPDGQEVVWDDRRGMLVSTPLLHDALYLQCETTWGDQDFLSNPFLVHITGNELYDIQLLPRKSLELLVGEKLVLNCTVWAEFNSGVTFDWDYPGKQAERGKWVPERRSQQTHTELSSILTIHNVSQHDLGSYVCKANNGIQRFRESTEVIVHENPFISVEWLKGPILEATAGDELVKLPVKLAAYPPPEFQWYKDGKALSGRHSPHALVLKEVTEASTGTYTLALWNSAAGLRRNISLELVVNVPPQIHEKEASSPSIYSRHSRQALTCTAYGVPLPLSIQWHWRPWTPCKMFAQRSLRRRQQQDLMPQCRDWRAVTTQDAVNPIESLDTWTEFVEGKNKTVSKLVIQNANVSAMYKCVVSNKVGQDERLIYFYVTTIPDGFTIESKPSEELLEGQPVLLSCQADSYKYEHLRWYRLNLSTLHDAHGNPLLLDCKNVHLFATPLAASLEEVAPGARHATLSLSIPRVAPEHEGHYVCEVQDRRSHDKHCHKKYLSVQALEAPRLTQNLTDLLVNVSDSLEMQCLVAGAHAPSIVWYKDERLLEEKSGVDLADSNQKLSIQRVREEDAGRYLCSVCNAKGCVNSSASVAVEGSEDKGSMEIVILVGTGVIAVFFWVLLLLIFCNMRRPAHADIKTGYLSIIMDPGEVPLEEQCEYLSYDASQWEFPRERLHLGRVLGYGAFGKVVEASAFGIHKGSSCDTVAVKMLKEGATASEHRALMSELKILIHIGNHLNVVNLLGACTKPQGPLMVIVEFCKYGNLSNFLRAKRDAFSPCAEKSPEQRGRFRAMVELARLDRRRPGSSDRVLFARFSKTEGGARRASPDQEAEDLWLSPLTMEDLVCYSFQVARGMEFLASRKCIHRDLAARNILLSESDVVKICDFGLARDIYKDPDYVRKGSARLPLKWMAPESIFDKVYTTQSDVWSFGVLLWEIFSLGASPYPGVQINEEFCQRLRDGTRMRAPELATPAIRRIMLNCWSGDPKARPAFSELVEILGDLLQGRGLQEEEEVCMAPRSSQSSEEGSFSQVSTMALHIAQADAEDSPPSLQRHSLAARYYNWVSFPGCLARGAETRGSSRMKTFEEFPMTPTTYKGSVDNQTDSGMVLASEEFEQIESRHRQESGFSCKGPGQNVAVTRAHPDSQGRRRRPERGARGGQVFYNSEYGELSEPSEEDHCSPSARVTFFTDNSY

[7] = target: Mitogen-activated protein kinase 8 (Homo sapiens, UniProt P45983); assay: Inhibition of JNK1-alpha-1 (unknown origin) at 1 uM relative to control
RPMI-8226 [8] = assay: Induction of apoptosis in human RPMI-8226 cells assessed as fold increase in caspase-3/7 activity at 0.87 uM; format: functional
[9] = target: T3, Mitogen-activated protein kinase 9 (Homo sapiens, UniProt P45984); assay: Inhibition of JNK2-alpha-2 (unknown origin) at 1 uM relative to control
Target sequence in this assay (P45984 whole entry, looked up, the tested form may be a part): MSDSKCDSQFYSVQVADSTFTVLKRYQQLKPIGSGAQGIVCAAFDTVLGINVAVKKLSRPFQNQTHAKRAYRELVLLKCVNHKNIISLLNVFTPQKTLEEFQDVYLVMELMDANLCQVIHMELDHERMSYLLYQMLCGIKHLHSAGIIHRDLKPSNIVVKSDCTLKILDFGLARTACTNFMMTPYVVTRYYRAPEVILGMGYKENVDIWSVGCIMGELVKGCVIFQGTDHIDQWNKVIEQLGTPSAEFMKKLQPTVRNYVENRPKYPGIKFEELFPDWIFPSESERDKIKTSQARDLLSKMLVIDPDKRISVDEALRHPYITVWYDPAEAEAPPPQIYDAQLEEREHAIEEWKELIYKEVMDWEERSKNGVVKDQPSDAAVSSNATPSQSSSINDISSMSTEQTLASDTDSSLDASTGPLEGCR

[10] = target: T1, Mitogen-activated protein kinase 10; assay: Inhibition of JNK3 in human HEK293 cells transfected with JNK3-NanoLuc fusion vector measured after 1 hr by NanoBRET assay; format: cell-based
[11] = target: T3, Mitogen-activated protein kinase 9; assay: Inhibition of JNK2-alpha-2 (unknown origin)
[12] = target: T2, Vascular endothelial growth factor receptor 3; assay: Inhibition of FLT4 (unknown origin)
RPMI-8226 [13] = assay: Induction of apoptosis in human RPMI-8226 cells assessed as fold increase in caspase-3/7 activity at 5.47 uM; format: functional
Cytochrome P450 2D6 = Cytochrome P450 2D6 (Homo sapiens, UniProt P10635); assay: Inhibition of CYP2D6 (unknown origin) using EOMCC as a substrate; format: ADME
Cytochrome P450 2D6, sequence (P10635 whole entry): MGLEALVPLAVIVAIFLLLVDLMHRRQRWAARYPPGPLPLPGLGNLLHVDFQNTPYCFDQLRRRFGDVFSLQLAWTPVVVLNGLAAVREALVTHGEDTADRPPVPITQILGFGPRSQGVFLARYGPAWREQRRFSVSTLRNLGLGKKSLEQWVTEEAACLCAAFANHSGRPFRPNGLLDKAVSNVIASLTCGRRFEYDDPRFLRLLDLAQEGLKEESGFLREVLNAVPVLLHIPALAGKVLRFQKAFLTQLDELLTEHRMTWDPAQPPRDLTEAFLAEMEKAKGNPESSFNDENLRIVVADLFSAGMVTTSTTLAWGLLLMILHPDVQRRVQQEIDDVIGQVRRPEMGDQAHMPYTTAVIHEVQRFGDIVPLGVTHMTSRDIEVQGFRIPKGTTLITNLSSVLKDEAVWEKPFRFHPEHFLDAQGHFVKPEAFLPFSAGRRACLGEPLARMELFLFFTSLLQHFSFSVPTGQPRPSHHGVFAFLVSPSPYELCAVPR

[14] = target: Voltage-gated inwardly rectifying potassium channel KCNH2 (Homo sapiens, UniProt Q12809); assay: Inhibition of hERG measured by fluorescence polarization assay
Voltage-gated inwardly rectifying potassium channel KCNH2, sequence (Q12809 whole entry): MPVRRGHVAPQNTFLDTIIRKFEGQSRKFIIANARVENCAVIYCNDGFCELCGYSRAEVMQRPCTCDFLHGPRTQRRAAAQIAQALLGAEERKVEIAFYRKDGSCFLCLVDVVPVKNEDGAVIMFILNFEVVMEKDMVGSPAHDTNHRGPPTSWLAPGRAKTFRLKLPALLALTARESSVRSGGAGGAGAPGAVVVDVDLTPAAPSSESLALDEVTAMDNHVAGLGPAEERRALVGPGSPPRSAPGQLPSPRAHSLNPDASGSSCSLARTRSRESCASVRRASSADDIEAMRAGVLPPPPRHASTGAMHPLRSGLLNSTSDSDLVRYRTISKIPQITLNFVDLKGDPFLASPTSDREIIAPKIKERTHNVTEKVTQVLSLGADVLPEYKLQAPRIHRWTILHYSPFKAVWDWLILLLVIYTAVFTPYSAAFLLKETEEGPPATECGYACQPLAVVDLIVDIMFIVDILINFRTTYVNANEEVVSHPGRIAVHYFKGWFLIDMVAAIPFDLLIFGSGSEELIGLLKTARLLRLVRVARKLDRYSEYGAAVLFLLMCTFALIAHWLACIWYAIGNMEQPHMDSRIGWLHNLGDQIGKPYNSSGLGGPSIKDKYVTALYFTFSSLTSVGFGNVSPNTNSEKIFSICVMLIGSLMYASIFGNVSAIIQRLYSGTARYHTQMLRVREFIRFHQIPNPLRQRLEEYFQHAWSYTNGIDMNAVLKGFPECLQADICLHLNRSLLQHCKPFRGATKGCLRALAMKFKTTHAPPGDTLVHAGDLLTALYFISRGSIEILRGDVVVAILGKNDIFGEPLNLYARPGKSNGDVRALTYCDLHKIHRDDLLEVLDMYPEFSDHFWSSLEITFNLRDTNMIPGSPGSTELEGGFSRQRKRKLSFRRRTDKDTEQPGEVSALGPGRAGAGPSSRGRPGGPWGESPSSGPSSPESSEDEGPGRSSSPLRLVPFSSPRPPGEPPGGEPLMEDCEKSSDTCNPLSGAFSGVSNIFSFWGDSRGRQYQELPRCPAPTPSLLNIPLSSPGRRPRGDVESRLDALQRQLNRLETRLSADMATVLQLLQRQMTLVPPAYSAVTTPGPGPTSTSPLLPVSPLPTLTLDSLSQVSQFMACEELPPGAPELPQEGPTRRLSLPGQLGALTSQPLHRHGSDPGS

[15] = system: Serine/threonine-protein kinase B-raf (Homo sapiens), P15056 [V600E]; assay: Inhibition of B-RAF V600E mutant (unknown origin) at 1 uM relative to control
Serine/threonine-protein kinase B-raf (Homo sapiens), P15056 [V600E], sequence (P15056 whole entry V600E): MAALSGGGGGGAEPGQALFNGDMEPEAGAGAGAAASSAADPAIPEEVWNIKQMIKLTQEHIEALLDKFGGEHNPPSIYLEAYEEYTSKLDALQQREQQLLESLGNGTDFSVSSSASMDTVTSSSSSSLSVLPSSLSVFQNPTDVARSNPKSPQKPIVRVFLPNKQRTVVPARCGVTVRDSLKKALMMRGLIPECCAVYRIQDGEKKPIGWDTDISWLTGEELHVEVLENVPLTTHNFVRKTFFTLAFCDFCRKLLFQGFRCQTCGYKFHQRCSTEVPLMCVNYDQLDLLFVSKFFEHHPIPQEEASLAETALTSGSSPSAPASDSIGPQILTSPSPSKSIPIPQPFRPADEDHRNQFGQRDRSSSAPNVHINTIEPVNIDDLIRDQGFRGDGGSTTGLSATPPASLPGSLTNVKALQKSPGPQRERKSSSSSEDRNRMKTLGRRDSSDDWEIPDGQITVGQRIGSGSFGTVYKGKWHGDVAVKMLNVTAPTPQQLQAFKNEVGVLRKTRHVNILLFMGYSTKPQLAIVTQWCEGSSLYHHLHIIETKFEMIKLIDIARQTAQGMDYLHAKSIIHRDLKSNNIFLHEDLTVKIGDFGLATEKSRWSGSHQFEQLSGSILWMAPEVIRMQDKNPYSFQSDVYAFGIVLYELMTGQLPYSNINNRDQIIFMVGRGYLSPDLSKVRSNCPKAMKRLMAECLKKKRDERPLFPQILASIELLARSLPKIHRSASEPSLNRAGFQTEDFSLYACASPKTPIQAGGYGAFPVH

Homo sapiens = organism: Homo sapiens; assay: Ratio IC50 for inhibition of FLT4 (unknown origin) over IC50 for JNK3 (unknown origin)

COc1cccc(-c2nn(-c3ccccc3)cc2-c2ccnc(NCCCNC(=O)Nc3ccc(F)cc3)c2)c1
IC50 (NCI/ADR-RES): 7.29 µM
TGI (NCI/ADR-RES): 25.4 µM
IC50 (ACHN): 10.6 µM
TGI (ACHN): > 37 µM
IC50 (NCI-H322M): 9.58 µM
TGI (NCI-H322M): > 37 µM
IC50 (KM12): 10.5 µM
TGI (KM12): > 37 µM
IC50 (NCI-H522): 5.07 µM
TGI (NCI-H522): 12 µM
IC50 (MDA-MB-435): 5.61 µM
TGI (MDA-MB-435): 12.8 µM
IC50 (SK-MEL-28): 6.57 µM
TGI (SK-MEL-28): 15.5 µM
IC50 (DU-145): 14 µM
TGI (DU-145): > 37 µM
IC50 (TK-10): 21.2 µM
TGI (TK-10): > 37 µM
IC50 (NCI-H226): 10.8 µM
TGI (NCI-H226): > 37 µM
IC50 (RPMI-8226 [1]): 5.96 µM
TGI (RPMI-8226 [1]): 24.6 µM
IC50 (HCC 2998): 7.38 µM
TGI (HCC 2998): 20 µM
IC50 (HCT-15): 7.64 µM
TGI (HCT-15): > 37 µM
IC50 [2]: > 1 µM
inhibition [3]: 3%
IC50 (OVCAR-5): 11.2 µM
TGI (OVCAR-5): > 37 µM
IC50 (CCRF-CEM): 8.53 µM
TGI (CCRF-CEM): 31.5 µM
IC50 (SNB-75): 4.18 µM
TGI (SNB-75): 22.7 µM
IC50 (T47D): 7.95 µM
TGI (T47D): > 37 µM
IC50 (HCT-116): 5.7 µM
TGI (HCT-116): 17 µM
IC50 (UO-31): 5.1 µM
TGI (UO-31): > 37 µM
IC50 (MDA-MB-231): 7.84 µM
TGI (MDA-MB-231): 23 µM
IC50 (BT-549): 6.24 µM
TGI (BT-549): 20.3 µM

O=C(NCCCNc1cc(-c2cn(-c3ccccc3)nc2-c2cccc(O)c2)ccn1)Nc1ccc(F)cc1
IC50 (NCI/ADR-RES): 3.51 µM
TGI (NCI/ADR-RES): 12.5 µM
IC50 (Cytochrome P450 3A4): 18.7 µM
Activity (RPMI-8226 [4]): 8.5%
IC50 (ACHN): 3.16 µM
TGI (ACHN): 14.2 µM
IC50 (NCI-H322M): 3.7 µM
TGI (NCI-H322M): 12.4 µM
Activity (RPMI-8226 [5]): 32.4%
IC50 (KM12): 2.61 µM
TGI (KM12): 5.79 µM
inhibition [6]: 84%
IC50 (NCI-H522): 4.03 µM
TGI (NCI-H522): 9.49 µM
inhibition [7]: 52%
IC50 (MDA-MB-435): 1.66 µM
TGI (MDA-MB-435): 5.05 µM
IC50 (SK-MEL-28): 2.54 µM
TGI (SK-MEL-28): 5.64 µM
IC50 (DU-145): 4.22 µM
TGI (DU-145): 19.3 µM
fold change (FC) (RPMI-8226 [8]): 1.84
inhibition [9]: 53%
IC50 (TK-10): 6.78 µM
TGI (TK-10): 20.3 µM
IC50 (NCI-H226): 3.39 µM
TGI (NCI-H226): 8.91 µM
IC50 [10]: 3.84 µM
IC50 [11]: 1 µM
IC50 [12]: 0.791 µM
IC50 (RPMI-8226 [1]): 0.87 µM
TGI (RPMI-8226 [1]): 5.47 µM
IC50 (HCC 2998): 1.09 µM
TGI (HCC 2998): 4.05 µM
IC50 (HCT-15): 0.94 µM
TGI (HCT-15): 4.04 µM
IC50 [2]: 0.0974 µM
inhibition [3]: 94%
IC50 (OVCAR-5): 3.37 µM
TGI (OVCAR-5): 9.12 µM
fold change (FC) (RPMI-8226 [13]): 2.75
IC50 (CCRF-CEM): 1.42 µM
TGI (CCRF-CEM): > 25 µM
IC50 (SNB-75): 0.54 µM
TGI (SNB-75): 3.18 µM
IC50 (T47D): 1.89 µM
TGI (T47D): 11 µM
IC50 (Cytochrome P450 2D6): 5.54 µM
IC50 (HCT-116): 1.62 µM
TGI (HCT-116): 5.82 µM
IC50 (UO-31): 1.58 µM
TGI (UO-31): 9.7 µM
IC50 (MDA-MB-231): 2.18 µM
TGI (MDA-MB-231): 7.78 µM
IC50 [14]: > 50 µM
inhibition [15]: 4%
IC50 (BT-549): 2.18 µM
TGI (BT-549): 11.6 µM
Ratio IC50 (Homo sapiens): 8.2
